Drawing on PubChem BioAssay (NCI), this text covers TGI and GI50 for eight compounds.

Structures are written as SMILES.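 Dose response: 5 concentrations. Exposure: 48 h. Format: 96-well plates. Endpoint: linear interpolation; highest concentration if not reached. GI50 = concentration required for 50% inhibition of growth. TGI is the concentration that stops growth completely.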 Bounds are passed on as bounds.

Some test systems named below: HL-60(TB) leukemia; 786-0 renal; ACHN renal; MOLT-4 leukemia; HS 578T breast; SF-295 CNS; SF-268 CNS; OVCAR-8 ovarian; HOP-92 NSCLC; OVCAR-3 ovarian.
What all share (assay): NCI anticancer screen, dose series, 48 h

On to `CC1(C)OC2COC(c3[nH]nc4c(=O)[nH]c(=O)[nH]c34)C2O1` (stereo not drawn), for which the TGI with HL-60(TB) leukemia, in the assay with 786-0 renal, in the assay on ACHN renal, with MOLT-4 leukemia, in the assay on HS 578T breast and in the assay with SF-295 CNS was more than 100 µM in each case. The TGI in the assay on SF-268 CNS, in the assay on OVCAR-8 ovarian, in the assay on HOP-92 NSCLC and in the assay on OVCAR-3 ovarian was more than 100 µM throughout.

Regarding `NC(Cc1c[nH]c2cc(F)ccc12)C(=O)O` (stereo not drawn), the GI50 in the assay on HL-60(TB) leukemia is 951 µM; in the assay with 786-0 renal, 1080 µM; in the assay with ACHN renal it was 1640 µM; with MOLT-4 leukemia, 1340 µM; with HS 578T breast, 1780 µM; with SF-295 CNS, 502 µM. The GI50 is 1270 µM in the assay on SF-268 CNS, 961 µM with OVCAR-8 ovarian, more than 2500 µM in the assay on HOP-92 NSCLC and 792 µM in the assay with OVCAR-3 ovarian. Moreover, the TGI in the assay on HL-60(TB) leukemia, in the assay on 786-0 renal, in the assay on ACHN renal, in the assay with MOLT-4 leukemia, with HS 578T breast and in the assay on SF-295 CNS was more than 2500 µM throughout. The TGI in the assay with SF-268 CNS, in the assay with OVCAR-8 ovarian, with HOP-92 NSCLC and in the assay with OVCAR-3 ovarian was more than 2500 µM in each case.

For `S=C1SCN(C2CCCCCCCCCCC2)CN1C1CCCCCCCCCCC1`, the TGI with HL-60(TB) leukemia, in the assay with 786-0 renal, in the assay with ACHN renal, in the assay with MOLT-4 leukemia, with HS 578T breast and in the assay with SF-295 CNS was more than 100 µM in each case. Besides, the TGI in the assay with SF-268 CNS, in the assay on OVCAR-8 ovarian, with HOP-92 NSCLC and in the assay on OVCAR-3 ovarian was more than 100 µM each time.

For the compound `COc1ccc2c(c1)c(-c1ccc(-c3cn(C)c4ccc(OC)cc34)o1)cn2C`, the GI50 was 1.98 µM with HL-60(TB) leukemia; more than 100 µM with 786-0 renal; 3.74 µM in the assay on ACHN renal; more than 100 µM in the assay on MOLT-4 leukemia; 4.2 µM with HS 578T breast; 13.4 µM with SF-295 CNS. Further, the GI50 in the assay with SF-268 CNS is 9.24 µM; in the assay on OVCAR-8 ovarian, 8.02 µM; with HOP-92 NSCLC it was 1.03 µM; in the assay with OVCAR-3 ovarian it was 8.51 µM. In addition, the TGI was 5.2 µM in the assay on HL-60(TB) leukemia; more than 100 µM in the assay with 786-0 renal; 18.6 µM in the assay on ACHN renal; more than 100 µM with MOLT-4 leukemia; 20.1 µM in the assay on HS 578T breast; 62.6 µM with SF-295 CNS. The TGI was more than 100 µM in the assay with SF-268 CNS, more than 100 µM with OVCAR-8 ovarian, 10.3 µM with HOP-92 NSCLC and 29.3 µM in the assay on OVCAR-3 ovarian.

Turning to `O=C1c2ccccc2-c2c1c1ccc([N+](=O)[O-])cc1c(=O)n2CCCn1ccnc1`, the GI50 with HL-60(TB) leukemia is 1.09 µM; in the assay with 786-0 renal, 0.218 µM; in the assay on MOLT-4 leukemia it was 2.12 µM; with HS 578T breast, 0.605 µM; with SF-295 CNS, 0.306 µM; with OVCAR-8 ovarian, 0.118 µM. In addition, the values for the GI50 with HOP-92 NSCLC and in the assay on OVCAR-3 ovarian were 2.18 µM and 0.334 µM, respectively. For the same compound, the TGI in the assay with HL-60(TB) leukemia was determined as 3.84 µM; in the assay on 786-0 renal, 0.894 µM; in the assay on ACHN renal, 0.704 µM; with MOLT-4 leukemia, 4.64 µM; in the assay with HS 578T breast, 10.2 µM; with SF-295 CNS, 2.29 µM. Also, the TGI in the assay with SF-268 CNS is 15.1 µM; with OVCAR-8 ovarian it was 4.78 µM; in the assay with HOP-92 NSCLC it was 29.9 µM; with OVCAR-3 ovarian, 2.12 µM.

With `CN1CCN(Cc2ccc(NC(=O)c3cccc(C#Cc4c(N)ncc5ccc(F)cc45)c3)cc2C(F)(F)F)CC1`, the GI50 in the assay with HL-60(TB) leukemia is 0.626 µM; in the assay on 786-0 renal, 0.966 µM; in the assay with ACHN renal, 0.509 µM; with MOLT-4 leukemia, 0.681 µM; in the assay with HS 578T breast, 0.627 µM; with SF-295 CNS, 0.917 µM. The GI50 in the assay with SF-268 CNS is 0.719 µM; in the assay on OVCAR-8 ovarian it was 1.03 µM; in the assay on HOP-92 NSCLC, 0.349 µM; in the assay on OVCAR-3 ovarian it was 0.853 µM. The TGI in the assay with HL-60(TB) leukemia stood at 1.88 µM; with 786-0 renal, 1.74 µM; with ACHN renal, 1.1 µM; with MOLT-4 leukemia, 1.63 µM; in the assay on HS 578T breast it was 1.97 µM; in the assay on SF-295 CNS, 1.78 µM. In addition, the TGI in the assay on SF-268 CNS was found to be 1.58 µM; with OVCAR-8 ovarian, 2.56 µM; in the assay on HOP-92 NSCLC it was 1.3 µM; with OVCAR-3 ovarian, 1.8 µM.

For the compound `CCOC(=O)c1csc(-c2nc(CCNC(=O)c3ccccc3)sc2Cl)n1`, the TGI in the assay on HL-60(TB) leukemia, in the assay with 786-0 renal, with ACHN renal, with MOLT-4 leukemia, in the assay with HS 578T breast and in the assay on SF-295 CNS was more than 100 µM in each case. Moreover, the TGI in the assay on SF-268 CNS was more than 100 µM; in the assay on OVCAR-8 ovarian it was more than 100 µM; in the assay with HOP-92 NSCLC it was 46.4 µM; in the assay on OVCAR-3 ovarian, more than 100 µM.

For the compound `Clc1nc(-c2ccccc2)nc(Cl)c1Cl`, the TGI in the assay with HL-60(TB) leukemia came out at 33 µM; in the assay with 786-0 renal, 22.8 µM; in the assay with ACHN renal, 9.33 µM; with MOLT-4 leukemia, 15 µM; in the assay with HS 578T breast it was 47.3 µM; in the assay on SF-295 CNS, 31.5 µM. For the same compound, the TGI was determined as 30.7 µM in the assay with SF-268 CNS, 41.2 µM in the assay with OVCAR-8 ovarian, 30.3 µM in the assay with HOP-92 NSCLC and 21.7 µM in the assay on OVCAR-3 ovarian.
